{
  "source": "patent US20090025102A1",
  "about": "“GLUTAMATE RECEPTOR […] AND PROTEINS FOR ENHANCING NITROGEN U[…] CROP PLANTS” (PIONEER HI-BRED INTERNATIONAL, INC., priority 2007, published 2009)",
  "key": {"[1]": {"tested_on": "AtGLR-AP knockout lines", "experiment": "Germination bioassay with the iGLR antagonist DNQX", "assay_type": "in vivo, Arabidopsis", "method": "Therefore we used a similar approach to test the sucrose sensitivity of the homozygous AtGLR-APs lines described above by conducting vertical plate assays on MS plates minus N and supplemented with increasing concentrations of sucrose. […] We also developed a short term N-sensitivity bioassay.\nBioassay, iGLR Antagonist DNQX\nHowever, germination of the GRASP2.1-1 line was not affected when DNQX was added to the media."}, "[2]": {"tested_on": "PSD1.1 and PSD2.1 KO plants", "experiment": "Growth assay of PSD1.1 and PSD2.1 KO plants on media containing DNQX", "assay_type": "in vivo, Arabidopsis", "conditions": "200 or 400 μM DNQX and 3% sucrose, 7 days", "method": "Growth assays for the PSD1.1 and PSD2.1 KO plants were undertaken. Plants were sown on different media, refrigerated overnight, then incubated in the standard growth conditions for 7 days. The short vernalization was used as that is what has been typically used in this lab for DNQX experiments. […] When grown in the presence of 3% sucrose, both on MS and media lacking nitrogen PSD1.1 and PSD2.1 looks similar to Col-0."}, "[3]": {"tested_on": "AtGLR-AP knockout lines", "conditions": "lines deficient in AtGLR1.1, uM 200, previously demonstrated; cited from earlier work"}},
  "data": [
    {"smiles": "O=c1[nH]c2cc([N+](=O)[O-])c([N+](=O)[O-])cc2[nH]c1=O", "note": "[DNQX, 6,7-dinitroquinoxaline-2,3-[1H,4H]-dione]", "values": [
      {"measurement": "germination when DNQX was added to the media", "setting": "[1]; GRASP2.1-1 line", "result": "not affected"},
      {"measurement": "germination on media supplemented DNQX", "setting": "[1]; GRASP2.3-6 line", "result": "noticeable reduction in germination"},
      {"measurement": "decrease in germination", "setting": "[1]; PSD1.1 knockout, 200 uM DNQX", "result": "35-40%"},
      {"measurement": "difference between Col-0 and the two KO lines", "setting": "[2]", "result": "No obvious difference"},
      {"measurement": "sensitivity of Arabidopsis lines deficient in AtGLR1.1 to the iGLR antagonist", "setting": "[3]", "result": "sensitive"}
    ]}
  ]
}
